Marks after values point to notes of the source that are not given here.
Key:
[1] = system: xerostomia (dry mouth) outpatients; assay: Saxon test, amount of secreted saliva, coenzyme Q10 capsule intake in patients with xerostomia; format: in vivo, human; conditions: for Amount of secreted saliva, Increased amount: difference after minus before one-month intake; for Amount of secreted saliva, After intake / Amount of secreted saliva, Before intake: group average; for Amount of secreted saliva, After intake: after one 100 mg capsule every day for one month; for Amount of secreted saliva, Before intake: before intake of one 100 mg capsule every day for one month
Protocol: A test subject chews a piece of gauze for 2 minutes. The weight of the gauze piece has been measured in advance. After the 2-minute chewing, the weight of the gauze is measured. An amount of secreted saliva is calculated as a difference between the weights of the gauze piece before and after the 2-minute chewing.
In total 23 xerostomia (dry mouth) outpatients (23 females including 21 Sjogren syndrome patients) were divided into three groups. To one group consisting of 9 patients, one oxidized coenzyme Q10-containing capsule having the composition illustrated in Table 1 (Test food 1, 240 mg per capsule) was administered every day for one month. To another group consisting of another 9 patients, one reduced coenzyme Q10-containing capsule having the composition shown in Table 1 (Test food 2, 240 mg per capsule) was administered every day for one month. The amount of secreted saliva was measured for each group before and after the intake. To the other group consisting of remaining 5 patients, one placebo capsule (Control food, 240 mg per capsule) was administered every day for one month. The amount of secreted saliva was similarly measured before and after the intake.
(§1) The amount of secreted saliva was measured by Saxon test. Namely, a test subject chewed a piece of gauze for 2 minutes. The weight of the gauze piece had been measured in advance. After the 2-minute chewing, the weight of the gauze piece was measured. The amount of secreted saliva was calculated as a difference between the weights of the gauze piece before and after the 2-minute chewing. In the present example, those whose amount of secreted saliva measured by Saxon test was 2.0 g/2 min. or less were determined as xerostomia patients, and those whose amount of secreted saliva was more than that were determined as healthy persons. Tables 2 and 3 illustrate the average values of all subjects of each group.

[2] = system: healthy persons; assay: Saxon test, amount of secreted saliva, coenzyme Q10 capsule intake in healthy persons; format: in vivo, human; conditions: for Amount of secreted saliva, Increased amount: difference after minus before one-month intake; for Amount of secreted saliva, After intake / Amount of secreted saliva, Before intake: group average; for Amount of secreted saliva, After intake: after one 100 mg capsule every day for one month; for Amount of secreted saliva, Before intake: before intake of one 100 mg capsule every day for one month; for Significant or excessive increase of secreted saliva before versus after intake: one capsule every day for one month
Protocol: as §1
In total, 57 healthy persons (12 males, 45 females) were collected as volunteers. One oxidized coenzyme Q10-containing capsule having the composition illustrated in Table 1 (Test food 1, 240 mg per capsule) was administered every day for one month to a group consisting of 22 healthy persons (5 males, 17 females), and one reduced coenzyme Q10-containing capsule having the composition illustrated in Table 1 (Test food 2, 240 mg per capsule) was administered every day for one month to another group consisting of 22 healthy persons (5 males, 17 females). The amount of secreted saliva was measured for each group before and after the intake by the same procedure as that in Example 1. To remaining 13 healthy persons (2 males, 11 females), one placebo capsule (Control food, 240 mg per capsule) was administered every day for one month. The amount of secreted saliva was measured before and after the intake.

[3] = system: rats; conditions: 52 consecutive weeks, 1.2 g/kg/day; cited from earlier work
[4] = system: Parkinson's disease model mice; conditions: Non-Patent Document 2; cited from earlier work

Compound | Amount of secreted saliva, Increased amount [1] | Amount of secreted saliva, After intake [1] | Amount of secreted saliva, After intake ([1]; listed as oxidized coenzyme Q10) | Amount of secreted saliva, Before intake [1] | Amount of secreted saliva, Increased amount [2] | Amount of secreted saliva, After intake [2] | Amount of secreted saliva, Before intake [2] | Significant or excessive increase of secreted saliva before versus after intake [2] | Toxicity [3] | Effect on conditions of Parkinson's disease model mice [4] | Amount of secreted saliva, Increased amount ([1]; listed as reduced coenzyme Q10) | Amount of secreted saliva, After intake ([1]; listed as reduced coenzyme Q10) | Comparison of salivary secretion-increasing effect ([1]; reduced versus oxidized coenzyme Q10 capsule)
COC1=C(OC)C(=O)C(C/C=C(\C)CC/C=C(\C)CC/C=C(\C)CC/C=C(\C)CC/C=C(\C)CC/C=C(\C)CC/C=C(\C)CC/C=C(\C)CC/C=C(\C)CCC=C(C)C)=C(C)C1=O [Oxidized coenzyme Q10] | 0.59 g/2 min. | 1.28* g/2 min. | 1.28 g/2 min. | 0.69 g/2 min. | 0.43 g/2 min. | 6.16 g/2 min. | 5.73 g/2 min. | None of the oxidized coenzyme Q10 capsule administration group, the reduced coenzyme Q10 capsule administration group and the placebo capsule administration group showed a significant or excessive increase | – | – | – | – | –
ubiquinone [Oxidized coenzyme Q] | – | – | – | – | – | – | – | – | no evidence of toxicity | effects to improve conditions | – | – | –
COc1c(O)c(C)c(C/C=C(\C)CC/C=C(\C)CC/C=C(\C)CC/C=C(\C)CC/C=C(\C)CC/C=C(\C)CC/C=C(\C)CC/C=C(\C)CC/C=C(\C)CCC=C(C)C)c(O)c1OC [Reduced coenzyme Q10] | 0.70 g/2 min. | 1.52* g/2 min. | – | 0.82 g/2 min. | 0.10 g/2 min. | 3.54 g/2 min. | 3.44 g/2 min. | None of the oxidized coenzyme Q10 capsule administration group, the reduced coenzyme Q10 capsule administration group and the placebo capsule administration group showed a significant or excessive increase | – | – | 0.7 g/2 min. | 1.52 g/2 min. | higher effects than oxidized coenzyme Q10
